Columns and labels:
[1] = test system: Neuroblastoma (line SH-SY5Y, ATCC-CRL-2266); assay: Activity in vitro on human neuroblastomas; assay type: cell-based; conditions: 22 μM once, concentrated liposomal form, 7 days of treatment
Method: They were obtained from the ATCC collection (Ref. ATCC-CRL-2266). The culture conditions are based on the recommendations in the ATCC information leaflet. • Chronic Myelomonocytic Leukaemia (CMML)
The neuroblastomas were treated with empty liposomes (controls) or with liposomes containing molecule 1.b or 2.b, 24 h after starting the culture. The cells are treated once with 22 μM of molecule 1.b or 22 μM of molecule 2.b. The liposomal form is concentrated.
For the control cells, the upper left hand photograph marked with the letter A was taken after 7 days of treatment; the lower left hand photograph marked with the letter B was taken after 28 days of treatment.
For the cells treated with the concentrated liposomal molecule 1.b, the photograph marked with the letter C (in the middle, at the top) was taken after 7 days of treatment and the photograph marked with the letter D (in the middle, at the bottom) after 28 days of treatment. For the cells treated with the concentrated liposomal molecule 2.b, the upper right hand photograph marked with the letter E was taken after 7 days of treatment.

[2] = test system: white blood cells from a patient suffering from CMML; assay: Activity in vitro on Chronic Myelomonocytic Leukaemia (CMML) cells; assay type: cell-based, human; conditions: 10 μM once, improved liposomal form, 72 h of treatment
Method: The cells purified from blood samples of patients suffering from Chronic Myelomonocytic Leukaemia (CMML) were obtained by the Clinical Haematology Centre and the Biotherapy Centre of the Saint Eloi Hospital (CHU de Montpellier). Culture was carried out by the technique of seeding on a feed layer. […] The CMML cells were cultured on cell lines originating from human embryo spinal cord (17).
The white blood cells are isolated from a blood sample collected from a patient suffering from CMML. The cells are treated once with 10 μM of molecule 2.b in improved liposomal form 24 hours after culturing by seeding on a feed layer (17).
The controls are cells treated with empty liposomes: the upper left hand photograph marked with the letter A was taken after 48 h of treatment and the lower left hand photograph with the letter B after 72 h of treatment.
For the cells treated with 2.b, the upper right hand photograph marked with the letter C was taken after 48 h of treatment and the lower right hand photograph with the letter D after 72 h of treatment.

[3] = test system: partially purified LDH from human GBM lines (U87-MG); assay: Inhibition of LDH activity, in gel assay after IEF; assay type: biochemical; conditions: ethanolic form, 36 mM
Method: Next, the LDH activities and their inhibition were detected by the “in gel assay” technique (25). The source of activity used was LDH LL and LDH, partially purified, from human GBM lines U87-MG (LDH GBM). “In gel assay” detection was carried out after isoelectric focusing (IEF) on electrophoresis gels of the LDH LL and LDH GBM samples.
The cells collected in phosphate buffer (50 mM, Ph 7.2.Pi) undergo several freeze (−20° C.)/thaw cycles and the cellular material is homogenized. After centrifugation at 10,000 g for 45 min at 4° C., the supernatant is collected and aliquots containing 10% glycerol (v:v) are frozen at −80° C. At the desired time, the aliquots, after thawing, are chromatographed on a filtration column (Biogel P-60, BioRad) prepared in Pi. The volume of gel is 9 ml and the inside diameter of the column is 0.4 cm. Elution is carried out at atmospheric pressure. […]
The LDH activity is detected by the lactate/NAD/MTT/phenazine methosulphate system (formation of a precipitate of the formazan type in the IEF gel); this system is described in reference (25). […]
The activity of LDH is detected by the “in gel assay” technique on IEF electrophoresis gels, which were described in the section “A/ PROTOCOLS 6)” (25); the precision of this technique is 0.2 unit of pH. The activity of LDH is detected by a dark blue precipitate, of the formazan type, the site where LDH activity is located.

Question: What does the source list for CC(=O)OC1C=C2CC(OC(=O)C3COC(C)(C)O3)CCC2(C)C2CCC3(C)C(C(C)CCCC(C)C)CCC3C12 (stereo not drawn) [Molecule 2.b, 7-acetoxy-10,13-dimethyl-17-(6-methylheptan-2-yl)-2,3,4,7,8,9,10,11,12,13,14,15,16,17-tetradecahydro-1H-cyclopenta[a]phenanthren-3-yl 2,2-dimethyl-1,3-dioxolane-4-carboxylate]?
Answer: toxicity to neuroblastoma cells compared to the control cells [1]: no viable cell is observed; effect on cell multiplication relative to the control [2]: Cell multiplication is slowed considerably; inhibition of the enzymatic activity of LDH GBM [3]: partially

— US10800806B2, “Sterol derivatives and use thereof for treating diseases involving transformed astrocyte cells or for treating malignant haemopathies” (BETA INNOV, priority 2012, dated 2020)
